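Cultured in 96-well plates, cells were exposed to test compound for 48 hours across five concentrations. TGI is the concentration that stops growth completely.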
What was measured:
Test in all cases: inhibition of tumour cell growth, NCI panel, 48 h
SR leukemia = tested on: SR leukemia
UO-31 renal = tested on: UO-31 renal
SNB-19 CNS = tested on: SNB-19 CNS
MDA-N = tested on: MDA-N
RXF 393 renal = tested on: RXF 393 renal
U251 CNS = tested on: U251 CNS
MCF7 breast = tested on: MCF7 breast
SK-MEL-5 melanoma = tested on: SK-MEL-5 melanoma
OVCAR-3 ovarian = tested on: OVCAR-3 ovarian
A498 renal = tested on: A498 renal
NCI/ADR-RES ovarian = tested on: NCI/ADR-RES ovarian
T-47D breast = tested on: T-47D breast
SK-MEL-28 melanoma = tested on: SK-MEL-28 melanoma
NCI-H23 lung = tested on: NCI-H23 lung
SK-OV-3 ovarian = tested on: SK-OV-3 ovarian
SF-539 CNS = tested on: SF-539 CNS
DU-145 prostate = tested on: DU-145 prostate
CCRF-CEM leukemia = tested on: CCRF-CEM leukemia
786-0 renal = tested on: 786-0 renal
UACC-257 melanoma = tested on: UACC-257 melanoma
PC-3 prostate = tested on: PC-3 prostate
MDA-MB-435 = tested on: MDA-MB-435
NCI-H522 lung = tested on: NCI-H522 lung
NCI-H226 lung = tested on: NCI-H226 lung
K-562 leukemia = tested on: K-562 leukemia
MDA-MB-231 breast = tested on: MDA-MB-231 breast
IGROV1 ovarian = tested on: IGROV1 ovarian
TK-10 renal = tested on: TK-10 renal
SK-MEL-2 melanoma = tested on: SK-MEL-2 melanoma
OVCAR-8 ovarian = tested on: OVCAR-8 ovarian
BT-549 breast = tested on: BT-549 breast
HS 578T breast = tested on: HS 578T breast
HOP-62 NSCLC = tested on: HOP-62 NSCLC
SF-268 CNS = tested on: SF-268 CNS
SW-620 colon = tested on: SW-620 colon
OVCAR-5 ovarian = tested on: OVCAR-5 ovarian
CAKI-1 renal = tested on: CAKI-1 renal
HOP-92 NSCLC = tested on: HOP-92 NSCLC
M14 melanoma = tested on: M14 melanoma
EKVX NSCLC = tested on: EKVX NSCLC
OVCAR-4 ovarian = tested on: OVCAR-4 ovarian
ACHN renal = tested on: ACHN renal
SNB-75 CNS = tested on: SNB-75 CNS
KM12 colon = tested on: KM12 colon
SF-295 CNS = tested on: SF-295 CNS
HCT-15 colon = tested on: HCT-15 colon
A549 NSCLC = tested on: A549 NSCLC
RPMI-8226 leukemia = tested on: RPMI-8226 leukemia
MALME-3M melanoma = tested on: MALME-3M melanoma
MOLT-4 leukemia = tested on: MOLT-4 leukemia
NCI-H460 lung = tested on: NCI-H460 lung
HCC-2998 colon = tested on: HCC-2998 colon
HL-60(TB) leukemia = tested on: HL-60(TB) leukemia
HT29 colon = tested on: HT29 colon
SN12C renal = tested on: SN12C renal
UACC-62 melanoma = tested on: UACC-62 melanoma
COLO 205 colon = tested on: COLO 205 colon
LOX IMVI melanoma = tested on: LOX IMVI melanoma
HCT-116 colon = tested on: HCT-116 colon

O=C1c2ccccc2C(=O)N1CCCC(=O)n1cc(F)c(=O)[nH]c1=O
TGI (SR leukemia): > 100 µM | TGI (UO-31 renal): > 100 µM | TGI (SNB-19 CNS): > 100 µM | TGI (MDA-N): > 100 µM | TGI (RXF 393 renal): > 100 µM | TGI (U251 CNS): > 100 µM | TGI (MCF7 breast): > 100 µM | TGI (SK-MEL-5 melanoma): > 100 µM | TGI (OVCAR-3 ovarian): > 79 µM | TGI (A498 renal): > 100 µM | TGI (NCI/ADR-RES ovarian): > 100 µM | TGI (T-47D breast): > 100 µM | TGI (SK-MEL-28 melanoma): > 100 µM | TGI (NCI-H23 lung): > 100 µM | TGI (SK-OV-3 ovarian): > 100 µM | TGI (SF-539 CNS): > 100 µM | TGI (DU-145 prostate): > 100 µM | TGI (CCRF-CEM leukemia): > 100 µM | TGI (786-0 renal): > 100 µM | TGI (UACC-257 melanoma): > 100 µM | TGI (PC-3 prostate): > 100 µM | TGI (MDA-MB-435): > 100 µM | TGI (NCI-H522 lung): > 100 µM | TGI (NCI-H226 lung): > 100 µM | TGI (K-562 leukemia): > 100 µM | TGI (MDA-MB-231 breast): > 100 µM | TGI (IGROV1 ovarian): > 100 µM | TGI (TK-10 renal): > 100 µM | TGI (SK-MEL-2 melanoma): > 100 µM | TGI (OVCAR-8 ovarian): > 100 µM | TGI (BT-549 breast): > 100 µM | TGI (HS 578T breast): > 100 µM | TGI (HOP-62 NSCLC): > 24.6 µM | TGI (SF-268 CNS): > 100 µM | TGI (SW-620 colon): > 100 µM | TGI (OVCAR-5 ovarian): > 100 µM | TGI (CAKI-1 renal): > 100 µM | TGI (HOP-92 NSCLC): > 100 µM | TGI (M14 melanoma): > 100 µM | TGI (EKVX NSCLC): > 100 µM | TGI (OVCAR-4 ovarian): > 100 µM | TGI (ACHN renal): > 100 µM | TGI (SNB-75 CNS): > 100 µM | TGI (KM12 colon): > 100 µM | TGI (SF-295 CNS): > 100 µM | TGI (HCT-15 colon): > 100 µM | TGI (A549 NSCLC): > 100 µM | TGI (RPMI-8226 leukemia): > 77.5 µM | TGI (MALME-3M melanoma): > 100 µM | TGI (MOLT-4 leukemia): > 100 µM | TGI (NCI-H460 lung): > 100 µM | TGI (HCC-2998 colon): > 100 µM | TGI (HL-60(TB) leukemia): > 100 µM | TGI (HT29 colon): > 100 µM | TGI (SN12C renal): > 100 µM | TGI (UACC-62 melanoma): > 100 µM | TGI (COLO 205 colon): > 100 µM | TGI (LOX IMVI melanoma): > 100 µM | TGI (HCT-116 colon): > 100 µM

Cc1ccc(N2CN3OC(=O)N(c4ccccc4)[C@@]3(c3ccccc3)C2)cc1
TGI (SR leukemia): > 100 µM | TGI (UO-31 renal): > 100 µM | TGI (SNB-19 CNS): > 100 µM | TGI (MDA-N): > 100 µM | TGI (RXF 393 renal): > 100 µM | TGI (U251 CNS): > 100 µM | TGI (MCF7 breast): > 100 µM | TGI (SK-MEL-5 melanoma): > 100 µM | TGI (OVCAR-3 ovarian): > 100 µM | TGI (A498 renal): > 100 µM | TGI (NCI/ADR-RES ovarian): > 100 µM | TGI (T-47D breast): 88.1 µM | TGI (SK-MEL-28 melanoma): > 100 µM | TGI (NCI-H23 lung): > 100 µM | TGI (SK-OV-3 ovarian): > 100 µM | TGI (SF-539 CNS): > 100 µM | TGI (DU-145 prostate): > 100 µM | TGI (CCRF-CEM leukemia): > 100 µM | TGI (786-0 renal): > 100 µM | TGI (UACC-257 melanoma): > 100 µM | TGI (PC-3 prostate): > 100 µM | TGI (MDA-MB-435): > 100 µM | TGI (NCI-H522 lung): > 100 µM | TGI (NCI-H226 lung): > 100 µM | TGI (K-562 leukemia): > 100 µM | TGI (MDA-MB-231 breast): > 100 µM | TGI (IGROV1 ovarian): > 100 µM | TGI (TK-10 renal): > 100 µM | TGI (SK-MEL-2 melanoma): > 100 µM | TGI (OVCAR-8 ovarian): > 100 µM | TGI (BT-549 breast): > 100 µM | TGI (HS 578T breast): > 100 µM | TGI (HOP-62 NSCLC): > 100 µM | TGI (SF-268 CNS): > 100 µM | TGI (SW-620 colon): > 100 µM | TGI (OVCAR-5 ovarian): > 100 µM | TGI (CAKI-1 renal): > 100 µM | TGI (HOP-92 NSCLC): > 100 µM | TGI (M14 melanoma): > 100 µM | TGI (EKVX NSCLC): > 100 µM | TGI (OVCAR-4 ovarian): > 100 µM | TGI (ACHN renal): > 100 µM | TGI (SNB-75 CNS): > 100 µM | TGI (KM12 colon): > 100 µM | TGI (SF-295 CNS): > 100 µM | TGI (HCT-15 colon): > 100 µM | TGI (A549 NSCLC): > 100 µM | TGI (RPMI-8226 leukemia): > 100 µM | TGI (MALME-3M melanoma): > 100 µM | TGI (MOLT-4 leukemia): > 100 µM | TGI (NCI-H460 lung): > 100 µM | TGI (HCC-2998 colon): > 100 µM | TGI (HL-60(TB) leukemia): > 100 µM | TGI (HT29 colon): > 100 µM | TGI (SN12C renal): > 100 µM | TGI (UACC-62 melanoma): > 100 µM | TGI (COLO 205 colon): > 100 µM | TGI (LOX IMVI melanoma): > 100 µM | TGI (HCT-116 colon): > 100 µM
